Data on 31 compounds can be found in patent US12686687B2, “Compounds and uses thereof” (Foghorn Therapeutics Inc., priority 2019, dated 2026).

The assay has as its target T1, Nanoluciferase-BRD9 fusion protein (3×FLAG-NLuc-BRD9) in SYO-1 cells (Homo sapiens, UniProt Q9H8M2).
T1 construct: expressed in transfected cells; host or cells: SYO-1
T1 sequence (Q9H8M2 1-597): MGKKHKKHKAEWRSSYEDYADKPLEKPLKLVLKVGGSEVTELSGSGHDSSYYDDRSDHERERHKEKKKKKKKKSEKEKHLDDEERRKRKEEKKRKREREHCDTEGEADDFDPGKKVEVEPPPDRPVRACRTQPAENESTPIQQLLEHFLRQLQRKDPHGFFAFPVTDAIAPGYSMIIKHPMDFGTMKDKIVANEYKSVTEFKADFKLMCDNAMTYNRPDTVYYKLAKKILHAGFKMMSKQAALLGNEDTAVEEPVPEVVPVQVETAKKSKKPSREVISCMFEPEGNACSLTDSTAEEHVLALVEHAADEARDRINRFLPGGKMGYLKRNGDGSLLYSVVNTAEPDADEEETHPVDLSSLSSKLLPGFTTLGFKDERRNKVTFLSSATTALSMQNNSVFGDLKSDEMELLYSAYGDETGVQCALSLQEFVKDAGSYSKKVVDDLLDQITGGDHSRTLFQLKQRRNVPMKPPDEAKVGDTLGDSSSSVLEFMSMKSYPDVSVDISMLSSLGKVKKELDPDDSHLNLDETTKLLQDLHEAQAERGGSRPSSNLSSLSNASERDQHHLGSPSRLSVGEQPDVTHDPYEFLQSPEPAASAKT
In words: SYO1 BRD9 NanoLuc degradation assay. In kind it is cell-based. As to conditions: Table 6B; SYO-1 cells expressing 3×FLAG-NLuc-BRD9, 6 hours incubation, 1 μM top dose; read-out: SYO1 BRD9-NanoLuc degradation IC50. On the procedure:
Procedure: A stable SYO-1 cell line expressing 3×FLAG-NLuc-BRD9 was generated. On day 0 cells were seeded in 30 μL media into each well of 384-well cell culture plates. The seeding density was 8000 cells/well. On day 1, cells were treated with 30 nL DMSO or 30 nL of 3-fold serially DMSO-diluted compounds (10 points in duplicates with 1 μM as final top dose). Subsequently plates were incubated for 6 hours in a standard tissue culture incubator and equilibrated at room temperature for 15 minutes. Nanoluciferase activity was measured by adding 15 μL of freshly prepared Nano-Glo Luciferase Assay Reagent (Promega N1130), shaking the plates for 10 minutes and reading the bioluminescence using an EnVision reader. • Results: The Inhibition % was calculated using the following formula: % Inhibition=100×(LumHC−LumSample)/(LumHC−LumLC). DMSO treated cells are employed as High Control (HC) and 1 μM of a known BRD9 degrader standard treated cells are employed as Low Control (LC).
For `COc1cc(-c2cn(C)c(=O)c3cc(C(=O)NC4CCN(CCCCCOc5cccc6c5C(=O)N(C5CCC(=O)NC5=O)C6=O)CC4(F)F)sc23)cc(OC)c1CN(C)C` (stereo not shown) [Compound D16], the DC50 is less than 10 nM.

Turning to `COc1cc(-c2cn(C)c(=O)c3cc(C(=O)NC4CCN(CCN5CCN(c6ccc7c(c6)CN(C6CCC(=O)NC6=O)C7=O)CC5)CC4(F)F)sc23)cc(Cl)c1CN(C)C` (stereo not shown) [Compound D17], the DC50 is less than 10 nM.

Consider `COc1cc(-c2cn(C)c(=O)c3cc(C(=O)NC4CCN(C(=O)CN5CCC6(CC5)CN(c5ccc7c(c5)CN(C5CCC(=O)NC5=O)C7=O)C6)CC4(F)F)sc23)cc(OC)c1CN(C)C` (stereo not shown) [Compound D18], for which the DC50 was less than 10 nM.

Consider `COc1cc(-c2cn(C)c(=O)c3cc(C(=O)NC4CCN(CCN5CCC6(CC5)CN(c5ccc7c(c5)CN(C5CCC(=O)NC5=O)C7=O)C6)CC4(F)F)sc23)cc(OC)c1CN(C)C` (stereo not shown) [Compound D19], for which the DC50 was less than 10 nM.

`COc1cc(-c2cn(C)c(=O)c3scnc23)cc(OC)c1CN1CC(CN2CCC3(CC2)CN(c2ccc4c(c2)C(=O)N(C2CCC(=O)NC2=O)C4)C3)C1` (stereo not shown) [Compound D20]: the DC50 is less than 10 nM.

As for `COc1cc(-c2cn(C)c(=O)c3occc23)cc(OC)c1CN1CC(CN2CCC3(CC2)CN(c2ccc4c(c2)C(=O)N(C2CCC(=O)NC2=O)C4)C3)C1` (stereo not shown) [Compound D21], the DC50 was less than 10 nM.

In the case of `COc1cc(-c2cn(C)c(=O)c3cc(C(=O)NC4CCN(C)CC4(F)F)sc23)cc(OC)c1CN1CCN(c2ccc3c(c2)CN(C2CCC(=O)NC2=O)C3=O)CC1` (stereo not shown) [Compound D22], the DC50 was less than 10 nM.

For the compound `COc1cc(-c2cn(C)c(=O)c3cc(C(=O)NC4CCN(C5CCN(c6ccc7c(c6)C(=O)N(C6CCC(=O)NC6=O)C7)CC5)CC4(F)F)sc23)cc(OC)c1CN(C)C` (stereo not shown) [Compound D24], the DC50 is less than 10 nM.

`COc1cc(-c2cn(C)c(=O)c3cc(C(=O)NC4CCN(C5CCN(c6ccc7c(c6)CN(C6CCC(=O)NC6=O)C7=O)CC5)CC4(F)F)sc23)cc(OC)c1CN(C)C` (stereo not shown) [Compound D25]: the DC50 is less than 10 nM.

In the case of `COc1cc(-c2cn(C)c(=O)c3cc(C(=O)NC4CCN(C)CC4(F)F)sc23)cc(OC)c1CN1CCC(CCN2CCN(c3ccc4c(c3)C(=O)N(C3CCC(=O)NC3=O)C4=O)CC2)CC1` (stereo not shown) [Compound D26], the DC50 is less than 10 nM.

As for `COc1cc(-c2cn(C)c(=O)c3cc(C(=O)NC4CCN(C(C)=O)CC4)sc23)cc(OC)c1CN1CCC(CCN2CCN(c3ccc4c(c3)C(=O)N(C3CCC(=O)NC3=O)C4=O)CC2)CC1` (stereo not shown) [Compound D27], the DC50 is less than 10 nM.

In the case of `COc1cc(-c2cn(C)c(=O)c3cc(C(=O)NC4CCN(CCCCCOc5ccc6c(c5)C(=O)N(C5CCC(=O)NC5=O)C6=O)CC4(F)F)sc23)cc(OC)c1CN1CCC1` (stereo not shown) [Compound D28], the DC50 was less than 10 nM.

`COc1cc(-c2cn(C)c(=O)c3cc(C(=O)NC4CCN(C(=O)CCCCOc5cccc6c5C(=O)N(C5CCC(=O)NC5=O)C6=O)CC4)sc23)cc(OC)c1CN1CCC1` (stereo not shown) [Compound D29]: the DC50 was less than 10 nM.

For the compound `COc1cc(-c2cn(C)c(=O)c3cc(C(=O)NC4CCN(C)CC4(F)F)sc23)cc(OC)c1CN(C)CC(=O)NCCOCCOc1cccc2c1C(=O)N(C1CCC(=O)NC1=O)C2=O` (stereo not shown) [Compound D30], the DC50 is more than 10 nM.

Take `Cn1cc(-c2cccc(C(F)(F)F)c2)c2sc(C(=N)NC3CCS(=O)(=O)N(CC(=O)NCCCCCCCCNc4cccc5c4C(=O)N(C4CCC(=O)NC4=O)C5=O)C3)cc2c1=O` (stereo not shown) [Compound D31]: the DC50 was more than 10 nM.

With `COc1cc(-c2cn(C)c(=O)c3cc(C(=O)NC4CCN(C)CC4)sc23)cc(OC)c1CN(C)CC(=O)NCCOCCOc1cccc2c1C(=O)N(C1CCC(=O)NC1=O)C2=O` (stereo not shown) [Compound D32], the DC50 is more than 100 nM.

Take `COc1cc(-c2cn(C)c(=O)c3cc(C(=O)NCC4CC5(CCN(CCCN6CCN(c7ccc8c(c7)C(=O)N(C7CCC(=O)NC7=O)C8=O)CC6)CC5)C4)sc23)cc(OC)c1CN(C)C` (stereo not shown) [Compound D33]: the DC50 was less than 10 nM.

For the compound `COc1cc(-c2cn(C)c(=O)c3cc(C(=O)NCC4CC5CN(C(=O)CCN6CCN(c7ccc8c(c7)C(=O)N(C7CCC(=O)NC7=O)C8=O)CC6)CC5C4)sc23)cc(OC)c1CN(C)C` (stereo not shown) [Compound D34], the DC50 is more than 100 nM.

For the compound `COc1cc(-c2cn(C)c(=O)c3cc(C(=O)NCC4CC5(CCN(C(=O)CCN6CCN(c7ccc8c(c7)C(=O)N(C7CCC(=O)NC7=O)C8=O)CC6)CC5)C4)sc23)cc(OC)c1CN(C)C` (stereo not shown) [Compound D35], the DC50 is less than 10 nM.

Consider `COc1cc(-c2cn(C)c(=O)c3cc(C(=O)NCC4CC5(CCN(CCN6CCN(c7ccc8c(c7)C(=O)N(C7CCC(=O)NC7=O)C8=O)CC6)CC5)C4)sc23)cc(OC)c1CN(C)C` (stereo not shown) [Compound D36], for which the DC50 was less than 10 nM.

Regarding `COc1cc(-c2cn(C)c(=O)c3cc(C(=O)NC4CCC5CN(CCCN6CCN(c7ccc8c(c7)C(=O)N(C7CCC(=O)NC7=O)C8=O)CC6)CC54)sc23)cc(OC)c1CN(C)C` (stereo not shown) [Compound D37], the DC50 is less than 10 nM.

With `COc1cc(-c2cn(C)c(=O)c3cc(C(=O)NC4CCC5CN(CCN6CCN(c7ccc8c(c7)C(=O)N(C7CCC(=O)NC7=O)C8=O)CC6)CC54)sc23)cc(OC)c1CN(C)C` (stereo not shown) [Compound D38], the DC50 was less than 10 nM.

As to `COc1cc(-c2cn(C)c(=O)c3cc(C(=O)NC4CCC5(CCN(CCN6CCN(c7ccc8c(c7)C(=O)N(C7CCC(=O)NC7=O)C8=O)CC6)C5)C4)sc23)cc(OC)c1CN(C)C` (stereo not shown) [Compound D39], the DC50 was less than 10 nM.

Turning to `COc1cc(-c2cn(C)c(=O)c3cc(C(=O)NC4CC5(CCN(C(=O)CCN6CCN(c7ccc8c(c7)C(=O)N(C7CCC(=O)NC7=O)C8=O)CC6)CC5)C4)sc23)cc(OC)c1CN(C)C` (stereo not shown) [Compound D40], the DC50 is less than 10 nM.

As for `COc1cc(-c2cn(C)c(=O)c3cc(C(=O)NC4CC5(CCN(CCN6CCN(c7ccc8c(c7)C(=O)N(C7CCC(=O)NC7=O)C8=O)CC6)CC5)C4)sc23)cc(OC)c1CN(C)C` (stereo not shown) [Compound D41], the DC50 was less than 10 nM.

Turning to `COc1cc(-c2cn(C)c(=O)c3cc(C(=O)NCC4CC5CN(CCCN6CCN(c7ccc8c(c7)C(=O)N(C7CCC(=O)NC7=O)C8=O)CC6)CC5C4)sc23)cc(OC)c1CN(C)C` (stereo not shown) [Compound D42], the DC50 is less than 10 nM.

On to `COc1cc(-c2cn(C)c(=O)c3cc(C(=O)NCC4CC5CN(CCN6CCN(c7ccc8c(c7)C(=O)N(C7CCC(=O)NC7=O)C8=O)CC6)CC5C4)sc23)cc(OC)c1CN(C)C` (stereo not shown) [Compound D43], for which the DC50 is less than 10 nM.

For `COc1cc(-c2cn(C)c(=O)c3cc(C(=O)NC4CCN(C(=O)CN5CCC6(C5)CN(c5ccc7c(c5)C(=O)N(C5CCC(=O)NC5=O)C7=O)C6)CC4(F)F)sc23)cc(OC)c1CN(C)C` (stereo not shown) [Compound D45], the DC50 is more than 1000 nM.

As for `COc1cc(-c2cn(C)c(=O)c3cc(C(=O)NC4CCN(C(=O)CN5CCC6(CC5)CN(c5ccc7c(c5)C(=O)N(C5CCC(=O)NC5=O)C7=O)C6)CC4(F)F)sc23)cc(OC)c1CN(C)C` (stereo not shown) [Compound D46], the DC50 is less than 10 nM.

With `COc1cc(-c2cn(C)c(=O)c3cc(C(=O)NC4CCC5(CCN(C(=O)CCN6CCN(c7ccc8c(c7)C(=O)N(C7CCC(=O)NC7=O)C8=O)CC6)C5)C4)sc23)cc(OC)c1CN(C)C` (stereo not shown) [Compound D47], the DC50 was more than 10 nM.

In the case of `COc1cc(-c2cn(C)c(=O)c3cc(C(=O)NCC4CC5(CCN(C(=O)CCN6CCN(c7ccc8c(c7)C(=O)N(C7CCC(=O)NC7=O)C8=O)CC6)CC5)CO4)sc23)cc(OC)c1CN(C)C` (stereo not shown) [Compound D48], the DC50 was more than 10 nM.
